Measured values published in patent US7138361B2, “Herbicidal heterocycles” (E. I. du Pont de Nemours and Company, priority 2000, dated 2006).

Columns and labels:
Assay type in all cases: in vivo
wild oat (Avena fatua) = experiment: Test B postemergence; settings: 13 to 15 days
Procedure, shortened: (§1)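 Visual injury scores, 0 = no effect to 100 = complete control, assigned against controls after 13 to 15 days in the greenhouse. Compounds formulated in non-phytotoxic solvent plus surfactant and applied to soil after planting (pre) or onto foliage of 1- to 4-leaf plants (post).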

[1] = tested on: cocklebur (Xanthium strumarium); experiment: Test B postemergence; settings: 13 to 15 days
Procedure, shortened: as §1

[2] = tested on: lambsquarters (Chenopodium album); experiment: Test B postemergence; settings: 13 to 15 days
Procedure, shortened: as §1

[3] = tested on: crabgrass (Digitaria sanguinalis); experiment: Test B postemergence; settings: 13 to 15 days
Procedure, shortened: as §1

Sunflower [4] = experiment: Test C preemergence; settings: Rate 250 g/ha, visual evaluation after 12 to 14 days
[5] = tested on: bermudagrass (Cynodon dactylon); experiment: Test C preemergence; settings: for Plant response rating (0 to 100 where 0 is no effect and 100 is complete control), Bermudagrass: Rate 250 g/ha, visual evaluation after 12 to 14 days
Procedure, shortened: (§2)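 Pre- and postemergence treatments used a non-phytotoxic solvent/surfactant formulation; post-treated plants measured 2 to 18 cm. Greenhouse hold 12–14 d; % control estimated visually relative to controls.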

[6] = tested on: Surinam grass (Brachiaria decumbens); experiment: Test C preemergence; settings: for Plant response rating (0 to 100), Surinam grass: Rate 250 g/ha, visual evaluation after 12 to 14 days
Procedure, shortened: as §2

[7] = tested on: cocklebur (Xanthium strumarium); experiment: Test C preemergence; settings: for Plant response rating (0 to 100), Cocklebur: Rate 250 g/ha, visual evaluation after 12 to 14 days
Procedure, shortened: as §2

[8] = tested on: giant foxtail (Setaria faberii); experiment: Test C preemergence; settings: for Plant response rating (0 to 100), Foxtail, Giant: Rate 250 g/ha, visual evaluation after 12 to 14 days
Procedure, shortened: as §2

Nightshade = experiment: Test C preemergence
[9] = tested on: lambsquarters (Chenopodium album); experiment: Test C preemergence; settings: for Plant response rating (0 to 100), Lambsquarters: Rate 250 g/ha, visual evaluation after 12 to 14 days
Procedure, shortened: as §2

corn (Zea mays) = experiment: Test C preemergence; settings: for Plant response rating (0 to 100), Corn: Rate 250 g/ha, visual evaluation after 12 to 14 days
Procedure, shortened: as §2

[10] = tested on: johnsongrass (Sorghum halepense); experiment: Test C preemergence; settings: for Plant response rating (0 to 100), Johnsongrass: Rate 250 g/ha, visual evaluation after 12 to 14 days
Procedure, shortened: as §2

kochia (Kochia scoparia) = experiment: Test C preemergence; settings: for Plant response rating (0 to 100), Kochia: Rate 250 g/ha, visual evaluation after 12 to 14 days
Procedure, shortened: as §2

soybean (Glycine max) = experiment: Test C preemergence; settings: for Plant response rating (0 to 100), Soybean: Rate 250 g/ha, visual evaluation after 12 to 14 days
Procedure, shortened: as §2

[11] = tested on: common ragweed (Ambrosia elatior); experiment: Test C preemergence; settings: for Plant response rating (0 to 100), Ragweed, Common: Rate 250 g/ha, visual evaluation after 12 to 14 days
Procedure, shortened: as §2

Sunflower [12] = experiment: Test C preemergence
[13] = tested on: pigweed (Amaranthus retroflexus); experiment: Test C preemergence; settings: for Plant response rating (0 to 100), Pigweed: Rate 250 g/ha, visual evaluation after 12 to 14 days
Procedure, shortened: as §2

[14] = tested on: velvetleaf (Abutilon theophrasti); experiment: Test C preemergence; settings: for Plant response rating (0 to 100), Velvetleaf: Rate 250 g/ha, visual evaluation after 12 to 14 days
Procedure, shortened: as §2

[15] = tested on: woolly cupgrass (Eriochloa villosa); experiment: Test C preemergence; settings: for Plant response rating (0 to 100), Cupgrass, Woolly: Rate 250 g/ha, visual evaluation after 12 to 14 days
Procedure, shortened: as §2

[16] = Rate 125 g/ha, scale 0 (no effect) to 100 (complete control)
[17] = Rate 500 g/ha, scale 0 to 100, 0 is no effect, 100 is complete control
[18] = Preemergence, Rate 500 g/ha, scale 0 to 100
[19] = Rate 62 g/ha, scale 0 to 100, 0 no effect, 100 complete control
[20] = preemergence, Rate 125 g/ha, scale 0 to 100, 0 no effect, 100 complete control
[21] = Rate 125 g/ha, scale 0 to 100, 0 no effect, 100 complete control

O=C1C(n2ccc(C3CCCCC3)n2)SCN1c1cccc(OC(F)(F)F)c1 (stereo not shown) [Compound 50]
50: Plant response rating, Cocklebur [1, 17] | Plant response rating, Crabgrass [3, 17] | Plant response rating, Surinam grass [6, 18] | Plant response rating (0 to 100), Surinam grass ([6]; preemergence) | Plant response rating, Lambsquarters [9, 20]
90: Plant response rating, Johnsongrass [10, 18] | Plant response rating, Pigweed [13, 18] | Plant response rating, Cupgrass, Woolly [15, 18] | Plant response rating (0 to 100), Cupgrass, Woolly ([15]; preemergence)
70: Plant response rating, Lambsquarters [2, 16] | Plant response rating, Lambsquarters [9, 18] | Plant response rating (0 to 100), Lambsquarters ([9]; preemergence) | Plant response rating (0 to 100), Johnsongrass ([10]; preemergence)
80: Plant response rating, Lambsquarters [2, 17]
60: Plant response rating, Foxtail, Giant [8, 19] | Plant response rating, Nightshade (Nightshade; Rate 500 g/ha, scale 0 to 100) | Plant response rating, Sunflower (Sunflower [12]; Rate 500 g/ha, scale 0 to 100)
20: Plant response rating, Surinam grass [6, 19] | Plant response rating (0 to 100), Foxtail, Giant ([8]; preemergence) | Plant response rating, Lambsquarters [9, 19] | Plant response rating, Kochia (kochia (Kochia scoparia); [18]) | Plant response rating, Ragweed, Common [11, 19] | Plant response rating, Sunflower (Sunflower [12]; [19]) | Plant response rating (0 to 100), Pigweed ([13]; preemergence) | Plant response rating, Pigweed [13, 20] | Plant response rating, Cupgrass, Woolly [15, 19] | Plant response rating, Cupgrass, Woolly [15, 20]
30: Plant response rating, Crabgrass [3, 16] | Plant response rating (0 to 100), Sunflower (Sunflower [4]) | Plant response rating, Surinam grass [6, 20] | Plant response rating, Ragweed, Common [11, 20] | Plant response rating, Pigweed [13, 19]
100: Plant response rating, Bermudagrass [5, 18] | Plant response rating, Bermudagrass [5, 19] | Plant response rating (0 to 100 where 0 is no effect and 100 is complete control), Bermudagrass ([5]; preemergence) | Plant response rating, Bermudagrass [5, 20] | Plant response rating, Foxtail, Giant [8, 18]
0: Plant response rating, Wild Oat (wild oat (Avena fatua); [16]) | Plant response rating, Wild Oat (wild oat (Avena fatua); [17]) | Plant response rating, Cocklebur [1, 16] | Plant response rating, Cocklebur [7, 18] | Plant response rating (0 to 100), Cocklebur ([7]; preemergence) | Plant response rating, Cocklebur [7, 20] | Plant response rating, Foxtail, Giant [8, 20] | Plant response rating, Nightshade (Nightshade; [19]) | Plant response rating, Nightshade (Nightshade; [21]) | Plant response rating, Corn (corn (Zea mays); [18]) | Plant response rating, Corn (corn (Zea mays); [19]) | Plant response rating (0 to 100), Corn (corn (Zea mays); preemergence) | Plant response rating, Corn (corn (Zea mays); [20]) | Plant response rating, Johnsongrass [10, 19] | Plant response rating, Kochia (kochia (Kochia scoparia); [19]) | Plant response rating (0 to 100), Kochia (kochia (Kochia scoparia); preemergence) | Plant response rating, Kochia (kochia (Kochia scoparia); [20]) | Plant response rating (0 to 100), Soybean (soybean (Glycine max); preemergence) | Plant response rating, Soybean (soybean (Glycine max); [20]) | Plant response rating, Velvetleaf [14, 18] | Plant response rating, Velvetleaf [14, 19] | Plant response rating (0 to 100), Velvetleaf ([14]; preemergence) | Plant response rating, Velvetleaf [14, 20]
40: Plant response rating, Johnsongrass [10, 20] | Plant response rating, Soybean (soybean (Glycine max); [18]) | Plant response rating, Ragweed, Common [11, 18] | Plant response rating (0 to 100), Ragweed, Common ([11]; preemergence)

O=C1C(n2ccc(C3CCCCC3)n2)OCN1c1cccc(C(F)(F)F)c1 (stereo not shown) [Compound 51]
80: Plant response rating, Lambsquarters [2, 16] | Plant response rating, Kochia (kochia (Kochia scoparia); [18]) | Plant response rating (0 to 100), Cupgrass, Woolly ([15]; preemergence)
0: Plant response rating, Wild Oat (wild oat (Avena fatua); [16]) | Plant response rating, Wild Oat (wild oat (Avena fatua); [17]) | Plant response rating, Cocklebur [1, 16] | Plant response rating, Cocklebur [1, 17] | Plant response rating, Crabgrass [3, 16] | Plant response rating, Cocklebur [7, 18] | Plant response rating, Cocklebur [7, 19] | Plant response rating (0 to 100), Cocklebur ([7]; preemergence) | Plant response rating, Cocklebur [7, 20] | Plant response rating, Foxtail, Giant [8, 20] | Plant response rating, Nightshade (Nightshade; [19]) | Plant response rating, Nightshade (Nightshade; [21]) | Plant response rating, Corn (corn (Zea mays); [18]) | Plant response rating, Corn (corn (Zea mays); [19]) | Plant response rating (0 to 100), Corn (corn (Zea mays); preemergence) | Plant response rating, Soybean (soybean (Glycine max); [20]) | Plant response rating, Ragweed, Common [11, 18] | Plant response rating (0 to 100), Ragweed, Common ([11]; preemergence) | Plant response rating, Ragweed, Common [11, 20] | Plant response rating, Pigweed [13, 20] | Plant response rating, Velvetleaf [14, 20]
90: Plant response rating, Lambsquarters [2, 17] | Plant response rating, Bermudagrass [5, 19] | Plant response rating, Johnsongrass [10, 18]
50: Plant response rating (0 to 100), Kochia (kochia (Kochia scoparia); preemergence) | Plant response rating, Kochia (kochia (Kochia scoparia); [20]) | Plant response rating, Cupgrass, Woolly [15, 19] | Plant response rating, Cupgrass, Woolly [15, 20]
100: Plant response rating, Bermudagrass [5, 18] | Plant response rating (0 to 100 where 0 is no effect and 100 is complete control), Bermudagrass ([5]; preemergence) | Plant response rating, Bermudagrass [5, 20] | Plant response rating, Foxtail, Giant [8, 18] | Plant response rating (0 to 100), Foxtail, Giant ([8]; preemergence) | Plant response rating, Lambsquarters [9, 18] | Plant response rating (0 to 100), Lambsquarters ([9]; preemergence) | Plant response rating, Lambsquarters [9, 20] | Plant response rating (0 to 100), Pigweed ([13]; preemergence) | Plant response rating, Cupgrass, Woolly [15, 18]
30: Plant response rating (0 to 100), Sunflower (Sunflower [4]) | Plant response rating, Surinam grass [6, 19] | Plant response rating, Surinam grass [6, 20] | Plant response rating, Soybean (soybean (Glycine max); [18]) | Plant response rating, Sunflower (Sunflower [12]; Rate 500 g/ha, scale 0 to 100) | Plant response rating, Pigweed [13, 18] | Plant response rating, Velvetleaf [14, 18] | Plant response rating (0 to 100), Velvetleaf ([14]; preemergence)
20: Plant response rating, Crabgrass [3, 17] | Plant response rating, Johnsongrass [10, 19] | Plant response rating, Johnsongrass [10, 20] | Plant response rating (0 to 100), Soybean (soybean (Glycine max); preemergence)
40: Plant response rating, Kochia (kochia (Kochia scoparia); [19])
60: Plant response rating, Nightshade (Nightshade; Rate 500 g/ha, scale 0 to 100) | Plant response rating, Lambsquarters [9, 19] | Plant response rating (0 to 100), Johnsongrass ([10]; preemergence)
70: Plant response rating, Surinam grass [6, 18] | Plant response rating (0 to 100), Surinam grass ([6]; preemergence) | Plant response rating, Foxtail, Giant [8, 19]
